Source: PubChem BioAssay AID1963437 (Molecular Pharmacology Branch, DTP, NCI, 2024)

Tested on: OVCAR-8 complex spheroid, growth inhibition
Experiment: Anticancer human tumor OVCAR-8 cell line growth inhibition [Asc];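 further: spheroids exposed to agents for 7 days before readout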;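 on viability, T/C: percent viability relative to DMSO vehicle wells taken as 100%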
Settings: for IC50: curve of first compound; for viability, T/C: stronger effect = lower value; active means viability on the fitted dose curve at most 10% of control; inactive means the rest
Description: Multicellular complex tumor spheroid response to apoptosis pathway targeting inhibitors Alrizomadlin, Pelcitoclax, and Dasminapant in combination with a variety of drugs and investigational agents in selected tumor cell lines
The MDM2 inhibitor alrizomadlin, the Bcl-2/Bcl-xL inhibitor pelcitoclax, and the IAPs inhibitor dasminapant were evaluated both individually and in combination with standard of care and investigational anticancer small molecules within a complex spheroid model of solid tumors. . Complex spheroids include a stromal component modeled by human endothelial cells (HUVEC) and fibroblasts modeled by human mesenchymal stem cells (MSCs). The concentration ranges selected for each drug and investigational agent were based upon clinically achievable concentrations if the clinical Cmax of the agent was known.
Compounds. The drugs and investigational agents: alrizomadlin (APG-115; NSC831270), pelcitoclax (APG-1252; NSC835773), dasminapant (APG-1387;NSC834197), TAK-243 (NSC785004), copanlisib (NSC809693), olaparib (NSC753686), talazoparib (NSC767125), cobimetinib (NSC 768068), eltanexor (KPT-8602, NSC 794443), abemaciclib (NSC 768073), sotorasib (NSC818433), adagrasib (NSC 831453), MRTX-1133 (NSC 836407), Iadademestat (ORY1001, NSC 806812), and RMC-4630 (NSC839698), were obtained from the NCI Developmental Therapeutics Program Chemical Repository. The FDA-approved anticancer drug set is available from the Developmental Therapeutics Program at https://dtp.cancer.gov/organization/dscb/obtaining/available plates.htm. […] The stock solutions were prepared in dimethyl sulfoxide (DMSO, Sigma-Aldrich, St. Louis, MO, cat. D2650) at 800-fold the tested concentration and stored at -70 degrees C prior to their use. All drugs and investigational agents were tested over a range starting from a high concentration at or near the clinical Cmax and decreasing in half-log increments. If the clinical Cmax for an agent had not been determined, the highest concentration tested was 10 microM.
The patient-derived cancer (PDC) cell lines include five colon adenocarcinomas: 186277-243-T-J2-PDC, 616215-338-R-J1-PDC, 439559-082-T-J2-PDC, 463943-066-T-J2-PDC, and 519858-162-T-J1-PDC; three pancreatic carcinomas: 323965-272-R-J2-PDC, 521955-158-R6-J3-PDC, and 521955-158-R2-J5-PDC; two uterine sarcomas: 327498-152-R-J2-PDC and 993429-296-R-J1-PDC; two rhabdomyosarcomas: 755483-174-R-J1-PDC and 772245-204-R-J1-PDC; two soft tissue sarcomas: 126254-015-R-J1-PDC and 494315-158-R-J1-PDC; two malignant fibrous histiocytomas: 317291-083-R-J1-PDC and 596521-263-R-J1-PDC; two breast carcinomas: 171881-019-R-J1-PDC and 885512-296-R-J2-PDC; and one ovarian carcinoma: 6556581-035-R-J-PDC were obtained from the NCI PDMR, (https://pdmr.cancer.gov). The established cell lines HSSY-2 synovial sarcoma (RRID:CVCL 8719), SYO-1 synovial sarcoma (RRID:CVCL_7146), MPNST malignant peripheral neural sheath tumor were obtained from the Sloan Kettering Institute. The following established cell lines were purchased from the American Type Culture Collection (ATCC, Manassas, VA), Sor the received from the NCI repository:, PANC-1 pancreatic carcinoma (CRL-1469, RRID:CVCL_0480), OVCAR-5 ovarian carcinoma (RRID:CVCL_1628), OVCAR-8 ovarian carcinoma (RRID:CVCL_1629), , MCF-7 breast carcinoma (CRL-12584, RRID:CVCL_0031), MDA-MB-231 breast carcinoma (CRL-12532, RRID:CVCL_0062), NCI-H1876 small cell lung carcinoma (CRL-5902, RRID:CVCL_1503), NCI-H510A small cell lung carcinoma (HTB-184, RRID:CVCL_1565), NCI-H1417 (CRL-5869, RRID:CVCL_1469), and NCI-H196 small cell lung carcinoma (CRL-5823, RRID:CVCL_1509). Dr. Peter Houghton (Greehey Children's Cancer Research Institute, University of Texas Health Science Center, San Antonio, TX) provided Rh-18 rhabdomyosarcoma (RRID:CVCL_1659). Pooled donor human umbilical vein endothelial cells (HUVEC, Lonza, cat. CC-2519) and human mesenchymal stem cells (hMSC, Lonza, cat. PT-2501) were purchased from Lonza (Walkersville, MD).
Cell Culture. […]

O=C(c1ccc(F)c(F)c1Nc1ccc(I)cc1F)N1CC(O)([C@@H]2CCCCN2)C1 + CCN1C(C(=O)NC23CCC(C(=O)O)(CC2)CC3)C(c2cccc(Cl)c2F)C2(C(=O)Nc3cc(Cl)ccc32)C12CCCCC2
inactive: viability, T/C (second compound 0.00949 µM, first compound 0.00316 µM) 102% | viability, T/C (second compound 0.00949 µM, first compound 0.01 µM) 102% | viability, T/C (second compound 0.00949 µM, first compound 0.0316 µM) 119% | viability, T/C (second compound 0.00949 µM, first compound 0.1 µM) 153% | viability, T/C (second compound 0.00949 µM, first compound 0.316 µM) 230% | viability, T/C (second compound 0.00949 µM, first compound 1 µM) 104% | viability, T/C (second compound 0.03 µM, first compound 0.00316 µM) 106% | viability, T/C (second compound 0.03 µM, first compound 0.01 µM) 108% | viability, T/C (second compound 0.03 µM, first compound 0.0316 µM) 138% | viability, T/C (second compound 0.03 µM, first compound 0.1 µM) 161% | viability, T/C (second compound 0.03 µM, first compound 0.316 µM) 241% | viability, T/C (second compound 0.03 µM, first compound 1 µM) 101% | viability, T/C (second compound 0.0949 µM, first compound 0.00316 µM) 101% | viability, T/C (second compound 0.0949 µM, first compound 0.01 µM) 97% | viability, T/C (second compound 0.0949 µM, first compound 0.0316 µM) 122% | viability, T/C (second compound 0.0949 µM, first compound 0.1 µM) 168% | viability, T/C (second compound 0.0949 µM, first compound 0.316 µM) 208% | viability, T/C (second compound 0.0949 µM, first compound 1 µM) 113% | viability, T/C (second compound 0.3 µM, first compound 0.00316 µM) 105% | viability, T/C (second compound 0.3 µM, first compound 0.01 µM) 103% | viability, T/C (second compound 0.3 µM, first compound 0.0316 µM) 159% | viability, T/C (second compound 0.3 µM, first compound 0.1 µM) 173% | viability, T/C (second compound 0.3 µM, first compound 0.316 µM) 238% | viability, T/C (second compound 0.3 µM, first compound 1 µM) 137% | viability, T/C (second compound 0.949 µM, first compound 0.00316 µM) 97.2% | viability, T/C (second compound 0.949 µM, first compound 0.01 µM) 102% | viability, T/C (second compound 0.949 µM, first compound 0.0316 µM) 163% | viability, T/C (second compound 0.949 µM, first compound 0.1 µM) 175% | viability, T/C (second compound 0.949 µM, first compound 0.316 µM) 248% | viability, T/C (second compound 0.949 µM, first compound 1 µM) 139% | viability, T/C (second compound 3 µM, first compound 0.00316 µM) 151% | viability, T/C (second compound 3 µM, first compound 0.01 µM) 141% | viability, T/C (second compound 3 µM, first compound 0.0316 µM) 183% | viability, T/C (second compound 3 µM, first compound 0.1 µM) 217% | viability, T/C (second compound 3 µM, first compound 0.316 µM) 260% | viability, T/C (second compound 3 µM, first compound 1 µM) 161%
> 1 µM: IC50 (second compound 0.00949 µM) | IC50 (second compound 0.03 µM) | IC50 (second compound 0.0949 µM) | IC50 (second compound 0.3 µM) | IC50 (second compound 0.949 µM) | IC50 (second compound 3 µM)
